For the experiment, the system named is CD2F1 mice, L1210 leukemia ip, survival T/C. Kind of experiment: NCI In Vivo Anticancer Drug Screen. Data for tumor model L1210 Leukemia (intraperitoneal) in CD2F1 (CDF1) mice. To be noted: higher = longer survival. In a few lines: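 Compound-dosed mice with transplantable tumor versus matched vehicle controls; endpoint ratio T/C reported.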
Setting [1] is: endpoint: mean survival time, dose: 100.0 mg/kg/injection, schedule: Q01DX001 (ip), vehicle: saline.
Setting [2] is: endpoint: mean survival time, dose: 200.0 mg/kg/injection, schedule: Q01DX001 (ip), vehicle: saline.
Where [3] appears, read: endpoint: mean survival time, dose: 400.0 mg/kg/injection, schedule: Q01DX001 (ip), vehicle: saline.
The mark [4] stands for this setting: endpoint: mean survival time, dose: 100.0 mg/kg/injection, schedule: Q01DX009 (ip), vehicle: saline with Tween-80.
The mark [5] stands for this setting: endpoint: mean survival time, dose: 50.0 mg/kg/injection, schedule: Q04DX002 (ip), vehicle: saline with Tween-80.
Setting [6] is: endpoint: mean survival time, dose: 100.0 mg/kg/injection, schedule: Q04DX002 (ip), vehicle: saline with Tween-80.
Where [7] appears, read: endpoint: mean survival time, dose: 200.0 mg/kg/injection, schedule: Q04DX002 (ip), vehicle: saline with Tween-80.
[8] abbreviates: endpoint: median survival time, dose: 50.0 mg/kg/injection, schedule: Q01DX009 (ip), vehicle: saline with Tween-80.
Where [9] appears, read: endpoint: median survival time, dose: 100.0 mg/kg/injection, schedule: Q01DX009 (ip), vehicle: saline with Tween-80.
Where [10] appears, read: endpoint: median survival time, dose: 200.0 mg/kg/injection, schedule: Q01DX009 (ip), vehicle: saline with Tween-80.
[11] abbreviates: endpoint: mean survival time, dose: 100.0 mg/kg/injection, schedule: Q04DX003 (ip), vehicle: saline with Tween-80.
The mark [12] stands for this setting: endpoint: mean survival time, dose: 200.0 mg/kg/injection, schedule: Q01DX009 (ip), vehicle: saline with Tween-80.
[13] abbreviates: endpoint: mean survival time, dose: 200.0 mg/kg/injection, schedule: Q04DX003 (ip), vehicle: saline with Tween-80.
Setting [14] is: endpoint: mean survival time, dose: 400.0 mg/kg/injection, schedule: Q01DX009 (ip), vehicle: saline with Tween-80.
The mark [15] stands for this setting: endpoint: mean survival time, dose: 400.0 mg/kg/injection, schedule: Q04DX003 (ip), vehicle: saline with Tween-80.

The structures appear in SMILES notation. Several values for one entry are separate records, joined by “and”; a condition that tells them apart may be missing. Identical values can stand only once. Toxic doses and inconclusive results are not listed.

On to `CC1(C)C(C2CCCC[N+]2=O)CS1(=O)=O` (stereo not given), for which the T/C was 100 % of control under setting [1]; 101 % of control (endpoint: mean survival time, dose: 100.0 mg/kg/injection, schedule: Q04DX003 (ip), vehicle: saline); 100 % of control under setting [2]; 103 % of control (endpoint: mean survival time, dose: 200.0 mg/kg/injection, schedule: Q04DX003 (ip), vehicle: saline); 96 % of control under setting [3]; 105 % of control (endpoint: mean survival time, dose: 400.0 mg/kg/injection, schedule: Q04DX003 (ip), vehicle: saline).
Take `CC(C)(O)CN`: the T/C is, setting by setting: (endpoint: mean survival time, dose: 25.0 mg/kg/injection, schedule: Q01DX009 (ip), vehicle: saline with Tween-80) 95 % of control; (endpoint: mean survival time, dose: 50.0 mg/kg/injection, schedule: Q01DX009 (ip), vehicle: saline with Tween-80) 98 % of control; under setting [4], 91 % of control.
With `COc1cccc(CN2CCN(N=O)CC2)c1`, the T/C (endpoint: mean survival time, dose: 12.5 mg/kg/injection, schedule: Q01DX009 (ip), vehicle: Klucel (hydroxypropylcellulose) (HPC)) is 98 % of control; the T/C (endpoint: mean survival time, dose: 25.0 mg/kg/injection, schedule: Q01DX009 (ip), vehicle: Klucel (hydroxypropylcellulose) (HPC)) was 93 % of control; the T/C (endpoint: mean survival time, dose: 50.0 mg/kg/injection, schedule: Q01DX009 (ip), vehicle: Klucel (hydroxypropylcellulose) (HPC)) is 103 % of control; the T/C (endpoint: mean survival time, dose: 100.0 mg/kg/injection, schedule: Q01DX009 (ip), vehicle: Klucel (hydroxypropylcellulose) (HPC)) is 103 % of control; the T/C (endpoint: mean survival time, dose: 200.0 mg/kg/injection, schedule: Q01DX009 (ip), vehicle: Klucel (hydroxypropylcellulose) (HPC)) was 101 % of control; the T/C (endpoint: mean survival time, dose: 400.0 mg/kg/injection, schedule: Q01DX009 (ip), vehicle: Klucel (hydroxypropylcellulose) (HPC)) was 93 % of control.
For `CCCCCCCC/C=C\CCCCCCCCNP(=O)(OCCCCCCCCCCCC)OCCCCCCCCCCCC`, the T/C runs as follows: under setting [5], 93 % of control; under setting [6], 96 % of control; under setting [7], 89 % of control; (endpoint: mean survival time, dose: 400.0 mg/kg/injection, schedule: Q04DX002 (ip), vehicle: saline with Tween-80) 100 % of control.
For `CC(=O)c1ccc[n+](Cc2ccc([N+](=O)[O-])cc2)c1`, the T/C (endpoint: mean survival time, dose: 25.0 mg/kg/injection, schedule: Q01DX009 (ip), vehicle: saline) was 117 % of control; the T/C (endpoint: mean survival time, dose: 50.0 mg/kg/injection, schedule: Q01DX009 (ip), vehicle: saline) is 109 % of control; the T/C (endpoint: mean survival time, dose: 100.0 mg/kg/injection, schedule: Q01DX009 (ip), vehicle: saline) is 108 % of control.
`CCCCCC1c2cc(O)ccc2OC1N1CCOCC1` (stereo not given): the T/C reads like this: (endpoint: median survival time, dose: 12.0 mg/kg/injection, schedule: Q01DX009 (ip), vehicle: saline with Tween-80) 108 % of control; (endpoint: median survival time, dose: 25.0 mg/kg/injection, schedule: Q01DX009 (ip), vehicle: saline with Tween-80) 106 % of control; under setting [8], 97 % of control; under setting [9], 102 % of control; under setting [10], 98 % of control.
As for `O=C(CBr)c1cccnc1`, the T/C (endpoint: mean survival time, dose: 6.25 mg/kg/injection, schedule: Q04DX003 (ip), vehicle: saline) was 95 % of control; the T/C (endpoint: mean survival time, dose: 12.5 mg/kg/injection, schedule: Q04DX003 (ip), vehicle: saline) is 98 % of control; the T/C (endpoint: mean survival time, dose: 25.0 mg/kg/injection, schedule: Q04DX003 (ip), vehicle: saline) is 101 % of control.
As for `[Cl][Pt+2]([Cl])([Cl])[Cl].[NH-]CC1(C[NH-])CCCC1`, the T/C runs as follows: (endpoint: median survival time, dose: 3.12 mg/kg/injection, schedule: Q04DX003 (ip), vehicle: saline) 171 % of control and 174 % of control; (endpoint: median survival time, dose: 6.25 mg/kg/injection, schedule: Q04DX003 (ip), vehicle: saline) 174 % of control and 217 % of control; (endpoint: median survival time, dose: 12.5 mg/kg/injection, schedule: Q04DX003 (ip), vehicle: saline) 280 % of control and 109 % of control; (endpoint: median survival time, dose: 25.0 mg/kg/injection, schedule: Q04DX003 (ip), vehicle: saline) 174 % of control.
Consider `Cc1oc(N)c(C#N)c1C`, for which the T/C was 101 % of control under setting [4]; 102 % of control under setting [11]; 104 % of control under setting [12]; 96 % of control under setting [13]; 106 % of control under setting [14]; 102 % of control under setting [15].
For the molecule `C[Si](C)(CCl)N[Si](C)(C)CCl`, the T/C is, setting by setting: under setting [4], 100 % of control; under setting [11], 98 % of control; under setting [12], 97 % of control; under setting [13], 96 % of control; under setting [14], 100 % of control; under setting [15], 102 % of control.
In the case of `O=C(CC(SCCN1CCOCC1)c1ccc([N+](=O)[O-])cc1)c1ccccc1` (stereo not given), the T/C was 104 % of control (endpoint: mean survival time, dose: 100.0 mg/kg/injection, schedule: Q01DX001 (ip), vehicle: Klucel (hydroxypropylcellulose) (HPC)); 96 % of control (endpoint: mean survival time, dose: 200.0 mg/kg/injection, schedule: Q01DX001 (ip), vehicle: Klucel (hydroxypropylcellulose) (HPC)); 107 % of control (endpoint: mean survival time, dose: 400.0 mg/kg/injection, schedule: Q01DX001 (ip), vehicle: Klucel (hydroxypropylcellulose) (HPC)).
For the molecule `CO/N=C(/c1ccccc1)c1cc[n+](C)cc1`, the T/C is 100 % of control (endpoint: mean survival time, dose: 37.5 mg/kg/injection, schedule: Q04DX003 (ip), vehicle: saline); 95 % of control (endpoint: mean survival time, dose: 75.0 mg/kg/injection, schedule: Q01DX001 (ip), vehicle: saline); 96 % of control (endpoint: mean survival time, dose: 75.0 mg/kg/injection, schedule: Q04DX003 (ip), vehicle: saline); 100 % of control (endpoint: mean survival time, dose: 150.0 mg/kg/injection, schedule: Q01DX001 (ip), vehicle: saline).
On to `CCOC(=O)C12CCC(C1=O)C(C)(O)CC2` (stereo not given), for which the T/C (endpoint: mean survival time, dose: 50.0 mg/kg/injection, schedule: Q01DX009 (ip), vehicle: acetone) was 92 % of control; the T/C (endpoint: mean survival time, dose: 100.0 mg/kg/injection, schedule: Q01DX009 (ip), vehicle: acetone) is 90 % of control; the T/C (endpoint: mean survival time, dose: 200.0 mg/kg/injection, schedule: Q01DX009 (ip), vehicle: acetone) is 94 % of control.
For the molecule `CCC(=O)Oc1[nH]c(C)c(C(C)=O)c1C`, the T/C is, setting by setting: under setting [4], 100 % of control; under setting [11], 102 % of control; under setting [12], 97 % of control; under setting [13], 97 % of control; under setting [14], 100 % of control; under setting [15], 94 % of control.
For the molecule `CC1(C(=O)c2ccccc2)CC2C=CC1C2` (stereo not given), the T/C is 94 % of control under setting [5], 108 % of control under setting [6] and 94 % of control under setting [7].
Turning to `CC(=O)COc1ccccc1NC(C)=O`, the T/C was 91 % of control under setting [11], 102 % of control under setting [13] and 91 % of control under setting [15].
For the molecule `CN(C)/C=C1\Cc2ccccc2C1=O`, the T/C is 95 % of control (endpoint: mean survival time, dose: 25.0 mg/kg/injection, schedule: Q01DX001 (ip), vehicle: saline with Tween-80); 92 % of control (endpoint: mean survival time, dose: 50.0 mg/kg/injection, schedule: Q01DX001 (ip), vehicle: saline with Tween-80); 90 % of control (endpoint: mean survival time, dose: 100.0 mg/kg/injection, schedule: Q01DX001 (ip), vehicle: saline with Tween-80).
As for `c1ccc(-c2cc3cc4ccccc4cn3c2)cc1`, the T/C reads like this: under setting [8], 104 % of control; under setting [9], 100 % of control; under setting [10], 108 % of control; (endpoint: median survival time, dose: 400.0 mg/kg/injection, schedule: Q01DX009 (ip), vehicle: saline with Tween-80) 113 % of control; (endpoint: median survival time, dose: 800.0 mg/kg/injection, schedule: Q01DX009 (ip), vehicle: saline with Tween-80) 110 % of control.
`O=C(O)c1cc(-c2ccc(Cl)cc2)nc2c(Cl)cc(Cl)cc12`: the T/C by setting is: under setting [1], 101 % of control; under setting [2], 97 % of control; under setting [3], 100 % of control.
On to `CCCCCCCCCCCC#N`, for which the T/C is, setting by setting: (endpoint: mean survival time, dose: 100.0 mg/kg/injection, schedule: Q04DX003 (ip), vehicle: Klucel (hydroxypropylcellulose) (HPC)) 102 % of control; (endpoint: mean survival time, dose: 200.0 mg/kg/injection, schedule: Q04DX003 (ip), vehicle: Klucel (hydroxypropylcellulose) (HPC)) 97 % of control; (endpoint: mean survival time, dose: 400.0 mg/kg/injection, schedule: Q04DX003 (ip), vehicle: Klucel (hydroxypropylcellulose) (HPC)) 104 % of control.
In the case of `CC1C=CC(=O)O1` (stereo not given), the T/C runs as follows: under setting [5], 100 % of control; under setting [6], 103 % of control.
`O=C(c1ccccc1)C1OC1c1ccccc1` (stereo not given): the T/C reads like this: under setting [4], 93 % of control; under setting [11], 101 % of control; under setting [12], 94 % of control; under setting [13], 98 % of control; under setting [14], 94 % of control; under setting [15], 101 % of control.

The values above are taken from PubChem BioAssay AID256 (DTP/NCI, 2004).
